One data set has as its target Galectin-1 (Homo sapiens, UniProt P09382). The data set can be described thus: Competitive binding affinity to recombinant human galectin-1 after 5 mins in presence of fluorescent probe 3,3'-dideoxy-3-[4-(fluorescein-5-yl-carbonylaminomethyl)-1H-1,2,3-triazol-1-yl]-3'-(3,5-dimethoxy-benzamido)-1,1'-sulfanediyl-di-beta-D-galactopyranoside by fluorescence polarization assay. (Fluorescence polarisation rises when a labelled molecule tumbles more slowly, as on binding a larger partner.)

Data set [1] addresses Galectin-3 (Homo sapiens, UniProt P17931). The data set can be described thus: Competitive binding affinity to recombinant human galectin-3 after 5 mins in presence of fluorescent probe by fluorescence polarization assay.
The next data set addresses T1, Galectin-8 (Homo sapiens, UniProt O00214).
T1 sequence (O00214 whole entry): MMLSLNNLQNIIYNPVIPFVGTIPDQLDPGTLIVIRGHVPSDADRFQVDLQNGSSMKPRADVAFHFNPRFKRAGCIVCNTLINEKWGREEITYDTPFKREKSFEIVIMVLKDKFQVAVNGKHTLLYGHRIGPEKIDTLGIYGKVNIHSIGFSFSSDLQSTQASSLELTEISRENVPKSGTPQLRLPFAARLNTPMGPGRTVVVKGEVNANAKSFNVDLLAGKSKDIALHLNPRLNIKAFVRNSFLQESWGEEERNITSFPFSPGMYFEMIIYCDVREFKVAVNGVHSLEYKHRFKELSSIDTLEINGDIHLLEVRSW
Put plainly: Competitive binding affinity to recombinant human galectin-8 N-terminal after 5 mins in presence of fluorescent probe 2-(fluorescein-5-yl-carbonylamino)ethyl beta-D-galactopyranosyl(1-4)-2-acetamido-2-deoxy-beta-D-glucopyranosyl(1-3)-beta-D-galactopyranosyl(1-4)-beta-D-glucopyranoside by fluorescence polarization assay.

A further data set has as its target T2, Galectin-7 (Mus musculus, UniProt O54974).
T2 sequence (O54974 whole entry): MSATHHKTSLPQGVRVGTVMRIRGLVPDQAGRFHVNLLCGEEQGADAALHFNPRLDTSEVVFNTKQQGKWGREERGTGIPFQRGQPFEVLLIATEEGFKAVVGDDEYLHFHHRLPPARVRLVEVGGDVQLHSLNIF
Put plainly: Competitive binding affinity to recombinant mouse galectin-7 after 5 mins in presence of fluorescent probe beta-D-galactopyranosyl(1-4)-2- acetamido-2-deoxy-beta-D-glucopyranosyl(1-3)-beta-D-galactopyranosyl(1-4)-(N1-fluorescein-5-yl-carbonylaminomethylcarbonyl)-beta-D-glucopyranosylamine by fluorescence polarization assay.

Data set [2] concerns the target T3, Galectin-9 (Homo sapiens, UniProt O00182). Put plainly: Competitive binding affinity to recombinant human galectin-9 N-terminal after 5 mins in presence of fluorescent probe 2-(fluorescein-5-yl-carbonylamino)ethyl-beta-D-galactopyranosyl(1-4)-2-acetamido-2-deoxy-beta-D-glucopyranosyl(1-3)-beta-D-galactopyranosyl(1-4)-beta-D-glucopyranoside by fluorescence polarization assay.

Data set [3] in a line: Solubility of the compound in DMSO at 100 mM. The format is physicochemical. To be noted: 100000 µM.
In data set [4] the target is T4, Galectin-4 (Homo sapiens, UniProt P56470).
T4 sequence (P56470 whole entry): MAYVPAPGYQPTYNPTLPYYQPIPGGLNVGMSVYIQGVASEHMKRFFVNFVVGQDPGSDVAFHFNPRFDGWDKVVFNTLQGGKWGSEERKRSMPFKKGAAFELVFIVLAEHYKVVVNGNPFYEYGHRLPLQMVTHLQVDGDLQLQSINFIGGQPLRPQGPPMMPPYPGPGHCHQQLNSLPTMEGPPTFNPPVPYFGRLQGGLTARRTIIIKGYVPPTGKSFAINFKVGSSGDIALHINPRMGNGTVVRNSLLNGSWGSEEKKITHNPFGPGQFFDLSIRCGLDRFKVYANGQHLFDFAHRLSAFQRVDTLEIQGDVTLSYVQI
Put plainly: Competitive binding affinity to recombinant human galectin-4 N-terminal after 5 mins in presence of fluorescent probe 3,3'-dideoxy-3-[4-(fluorescein-5-yl-carbonylaminomethyl)-1H-1,2,3-triazol-1-yl]-3'-(3,5-dimethoxy-benzamido)-1,1'-sulfanediyl-di-beta-D-galactopyranoside by fluorescence polarization assay.

For data set [5], the target named is Galectin-3 (Homo sapiens, UniProt P17931, K176L). Put plainly: Competitive binding affinity to recombinant human galectin-3 K176L mutant after 5 mins in presence of fluorescent probe beta-D-galactopyranosyl(1-4)-2-acetamido-2-deoxy-beta-D-glucopyranosyl(1-3)-beta-D-galactopyranosyl(1-4)-(N1-fluorescein-5-yl-carbonylaminomethylcarbonyl)-beta-D-glucopyranosylamine by fluorescence polarization assay.
Chain of Galectin-3 (Homo sapiens, UniProt P17931, K176L) (P17931 2-250 K176L limits assumed): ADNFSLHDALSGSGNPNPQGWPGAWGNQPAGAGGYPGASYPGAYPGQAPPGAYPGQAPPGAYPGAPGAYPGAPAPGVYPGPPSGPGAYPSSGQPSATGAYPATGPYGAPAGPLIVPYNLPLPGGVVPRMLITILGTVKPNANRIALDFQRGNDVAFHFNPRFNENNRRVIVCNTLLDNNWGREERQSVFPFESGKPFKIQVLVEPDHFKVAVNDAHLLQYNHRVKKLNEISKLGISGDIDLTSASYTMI

The target in data set [6] is Galectin-3 (Homo sapiens, UniProt P17931, R186S). The data set can be described thus: Competitive binding affinity to recombinant human galectin-3 R186S mutant after 5 mins in presence of fluorescent probe 2-(fluorescein-5/6-yl-carbonyl)-aminoethyl 2-acetamido-2-deoxy-alpha-D-galactopyranosyl-(1-3)-[alpha-L-fucopyranosyl-(1-2)]-beta-D-galactopyranosyl-(1-4)-beta-D-glucopyranoside by fluorescence polarization assay.
Chain of Galectin-3 (Homo sapiens, UniProt P17931, R186S) (P17931 2-250 R186S limits assumed): as the sequence (P17931 2-250 K176L limits assumed) above, with L175K, R185S counted along it

Data set [7] deals with Galectin-3 (Homo sapiens, UniProt P17931, R186K). The data set can be described thus: Competitive binding affinity to recombinant human galectin-3 R186K mutant after 5 mins in presence of fluorescent probe beta-D-galactopyranosyl(1-4)-2-acetamido-2-deoxy-beta-D-glucopyranosyl(1-3)-beta-D-galactopyranosyl(1-4)-(N1-fluorescein-5-yl-carbonylaminomethylcarbonyl)-beta-D-glucopyranosylamine by fluorescence polarization assay.
Chain of Galectin-3 (Homo sapiens, UniProt P17931, R186K) (P17931 2-250 R186K limits assumed): as the sequence (P17931 2-250 K176L limits assumed) above, with L175K, R185K counted along it

A further data set concerns the target T5, Galectin-2 (Homo sapiens, UniProt P05162).
T5 sequence (P05162 whole entry): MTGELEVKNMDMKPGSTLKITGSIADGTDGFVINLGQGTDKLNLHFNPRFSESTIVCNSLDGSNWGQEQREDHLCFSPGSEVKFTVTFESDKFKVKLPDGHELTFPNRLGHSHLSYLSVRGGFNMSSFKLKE
Put plainly: Competitive binding affinity to recombinant human galectin-2 after 5 mins in presence of fluorescent probe ,[…]-3-[4-(fluorescein-5-yl-carbonylaminomethyl)-1H-1,2,3-triazol-1-yl]-3'-(3,5-dimethoxy-benzamido)-1,1'-sulfanediyl-di-beta-D-galactopyranoside by fluorescence polarization assay.

In data set [8] the target is T4, Galectin-4. Put plainly: Competitive binding affinity to recombinant human galectin-4 C-terminal after 5 mins in presence of fluorescent probe 2-(fluorescein-5/6-yl-carbonyl)-aminoethyl 2-acetamido-2-deoxy-alpha-D-galactopyranosyl-(1-3)-[alpha-L-fucopyranosyl-(1-2)]-beta-D-galactopyranosyl-(1-4)-beta-D-glucopyranoside by fluorescence polarization assay.
Data set [9] has as its system Mus musculus. Put plainly: Anti-fibrotic activity in C57/Bl6 mouse assessed as reduction in bleomycin-induced galectin-3 levels in bronchoalveolar lavage fluid at 3.5 mg/kg administered intratracheally as 4 doses every 48 hrs commencing on day 18 of bleomycin induction measured on day 26 post last dose by ELISA. It counts as functional. Also on record: scale not given: the % may be the effect or the level left. A general note: ELISA stands for enzyme-linked immunosorbent assay.

Data set [10] concerns Mus musculus. Put plainly: Anti-fibrotic activity in C57/Bl6 mouse bleomycin-induced lung fibrosis model assessed as reduction in fibrosis score at 0.35 to 1 mg/kg administered intratracheally as 4 doses every 48 hrs commencing on day 18 of bleomycin induction measured on day 26 post last dose by Masson's trichrome staining based assay relative to control. It counts as functional, organism-based.

Data set [11] concerns the target Galectin-3 (Homo sapiens, UniProt P17931, R144K). The data set can be described thus: Competitive binding affinity to recombinant human galectin-3 R144K mutant after 5 mins in presence of fluorescent probe 2-(fluorescein-5/6-yl-carbonyl)-aminoethyl 2-acetamido-2-deoxy-alpha-D-galactopyranosyl-(1-3)-[alpha-L-fucopyranosyl-(1-2)]-beta-D-galactopyranosyl-(1-4)-beta-D-glucopyranoside by fluorescence polarization assay.

Data set [12] concerns Mus musculus. The data set can be described thus: Anti-fibrotic activity in C57/Bl6 mouse assessed as reduction in bleomycin-induced galectin-3 levels in serum at 0.35 to 3.5 mg/kg administered intratracheally as 4 doses every 48 hrs commencing on day 18 of bleomycin induction measured on day 26 post last dose by ELISA. It counts as functional, organism-based.
Data set [13] has as its system Mus musculus. The data set can be described thus: Effect on inflammatory response in C57/Bl6 mouse assessed as change in bleomycin-induced total cell counts in bronchoalveolar lavage fluid at 0.35 to 3.5 mg/kg administered intratracheally as 4 doses every 48 hrs commencing on day 18 of bleomycin induction measured on day 26 post last dose. It counts as functional, organism-based.

The test system of data set [14] is Mus musculus. Put plainly: Effect on inflammatory score in bleomycin-induced C57/Bl6 mouse at 1 to 3.5 mg/kg administered intratracheally as 4 doses every 48 hrs commencing on day 18 of bleomycin induction measured on day 26 post last dose by Masson's trichrome staining based assay. It counts as functional, organism-based.
Data set [15] has as its system Mus musculus. The data set can be described thus: Anti-fibrotic activity in C57/Bl6 mouse assessed as reduction in bleomycin-induced galectin-3 levels in bronchoalveolar lavage fluid at 0.35 mg/kg administered intratracheally as 4 doses every 48 hrs commencing on day 18 of bleomycin induction measured on day 26 post last dose by ELISA. It counts as functional. Also on record: scale not given: the % may be the effect or the level left.

Data set [16] deals with Mus musculus. The data set can be described thus: Anti-fibrotic activity in C57/Bl6 mouse bleomycin-induced lung fibrosis model assessed as reduction in total lung collagen levels at 0.35 to 1 mg/kg administered intratracheally as 4 doses every 48 hrs commencing on day 18 of bleomycin induction measured on day 26 post last dose. The format is functional, organism-based.

Data set [17] deals with Mus musculus. The data set can be described thus: Effect on inflammatory response in C57/Bl6 mouse assessed as change in bleomycin-induced total protein levels in bronchoalveolar lavage fluid at 0.35 to 3.5 mg/kg administered intratracheally as 4 doses every 48 hrs commencing on day 18 of bleomycin induction measured on day 26 post last dose. The format is functional, organism-based.

The target of data set [18] is Galectin-3 (Homo sapiens, UniProt P17931, R144S). The data set can be described thus: Competitive binding affinity to recombinant human galectin-3 R144S mutant after 5 mins in presence of fluorescent probe 2-(fluorescein-5/6-yl-carbonyl)-aminoethyl 2-acetamido-2-deoxy-alpha-D-galactopyranosyl-(1-3)-[alpha-L-fucopyranosyl-(1-2)]-beta-D-galactopyranosyl-(1-4)-beta-D-glucopyranoside by fluorescence polarization assay.
Chain of Galectin-3 (Homo sapiens, UniProt P17931, R144S) (P17931 2-250 R144S limits assumed): as the sequence (P17931 2-250 K176L limits assumed) above, with R143S, L175K counted along it

The test system of data set [19] is Mus musculus. Put plainly: Anti-fibrotic activity in C57/Bl6 mouse bleomycin-induced lung fibrosis model assessed as reduction in fibrosis score at 3.5 mg/kg administered intratracheally as 4 doses every 48 hrs commencing on day 18 of bleomycin induction measured on day 26 post last dose by Masson's trichrome staining based assay relative to control. The format is functional, organism-based.

Data set [20] relates to Mus musculus. The data set can be described thus: Anti-fibrotic activity in C57/Bl6 mouse bleomycin-induced lung fibrosis model assessed as reduction in total lung collagen levels at 3.5 mg/kg administered intratracheally as 4 doses every 48 hrs commencing on day 18 of bleomycin induction measured on day 26 post last dose relative to control. The format is functional. Also on record: scale not given: the % may be the effect or the level left.

Data set [21] addresses T3, Galectin-9. Put plainly: Competitive binding affinity to recombinant human galectin-9 C-terminal after 5 mins in presence of fluorescent probe 3,3'-dideoxy-3-[4-(fluorescein-5-yl-carbonylaminomethyl)-1H-1,2,3-triazol-1-yl]-3'-(3,5-dimethoxy-benzamido)-1,1'-sulfanediyl-di-beta-D-galactopyranoside by fluorescence polarization assay.

Active and inactive are the calls of the source. The rule behind the calls is not given here. Where only a bound is given, the exact number is not on record here.

Chain of Galectin-3 (Homo sapiens, UniProt P17931) (P17931 whole entry): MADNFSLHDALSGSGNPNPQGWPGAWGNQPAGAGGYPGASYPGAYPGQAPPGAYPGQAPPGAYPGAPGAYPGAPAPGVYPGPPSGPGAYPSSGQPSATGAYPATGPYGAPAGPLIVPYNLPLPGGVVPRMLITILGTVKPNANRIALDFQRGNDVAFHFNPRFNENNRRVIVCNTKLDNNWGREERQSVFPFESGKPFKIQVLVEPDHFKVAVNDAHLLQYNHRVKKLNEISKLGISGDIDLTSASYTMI
T3 sequence (O00182 whole entry): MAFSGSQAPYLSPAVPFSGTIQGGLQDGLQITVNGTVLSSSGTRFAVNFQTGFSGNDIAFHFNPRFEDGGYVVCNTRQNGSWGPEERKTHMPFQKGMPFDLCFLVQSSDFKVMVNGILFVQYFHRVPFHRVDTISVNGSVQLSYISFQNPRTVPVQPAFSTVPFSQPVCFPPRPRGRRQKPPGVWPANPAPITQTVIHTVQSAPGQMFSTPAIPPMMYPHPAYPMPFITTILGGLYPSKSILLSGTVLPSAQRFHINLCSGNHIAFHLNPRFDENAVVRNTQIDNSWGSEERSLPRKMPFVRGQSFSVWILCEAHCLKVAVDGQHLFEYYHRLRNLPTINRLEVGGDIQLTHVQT
Chain of Galectin-1 (P09382 whole entry): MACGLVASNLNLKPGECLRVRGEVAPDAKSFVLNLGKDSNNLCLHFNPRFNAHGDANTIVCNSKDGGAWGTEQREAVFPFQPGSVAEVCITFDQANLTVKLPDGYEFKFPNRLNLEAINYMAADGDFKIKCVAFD
Chain of Galectin-3 (Homo sapiens, UniProt P17931, R144K) (P17931 2-250 R144K limits assumed): as the sequence (P17931 2-250 K176L limits assumed) above, with R143K, L175K counted along it

Broadly, the Kd is a measure of binding affinity in units of concentration. Regarding `O=c1oc2ccc(Cl)cc2cc1CO[C@H]1[C@@H](O)[C@@H](CO)O[C@@H](S[C@@H]2O[C@H](CO)[C@H](O)[C@H](OCc3cc4cc(Cl)ccc4oc3=O)[C@H]2O)[C@@H]1O`, the Kd on Galectin-1 amounted to 21 µM; on Galectin-3 [1], 1.4 µM; on Galectin-8, 71 µM; on Galectin-7 it was 60 µM; on Galectin-9 [2], 140 µM. Also, in data set [3], the solubility result is listed as “Soluble”.
`O=C(N[C@H]1[C@@H](O)[C@@H](CO)O[C@@H](S[C@@H]2O[C@H](CO)[C@H](O)[C@H](NC(=O)c3ccc4ccccc4c3)[C@H]2O)[C@@H]1O)c1ccc2ccccc2c1`: the Kd on Galectin-3 [1] was 0.16 µM; on Galectin-7, 1.7 µM.
With `O=c1oc2ccccc2cc1CO[C@H]1[C@@H](O)[C@@H](CO)O[C@@H](S[C@@H]2O[C@H](CO)[C@H](O)[C@H](OCc3cc4ccccc4oc3=O)[C@H]2O)[C@@H]1O`, the Kd came to 41 µM at Galectin-4 [4]; 16 µM on Galectin-1; 0.091 µM at Galectin-3 [1]; 0.27 µM on Galectin-3 [5]; 50 µM at Galectin-3 [6]; 110 µM at Galectin-3 [7]. Also, the dissociation constant (Kd) came to 6.9 µM on Galectin-2; 210 µM at Galectin-4 [8]; 3 µM on Galectin-3 [11]; 5 µM on Galectin-7; 1.6 µM at Galectin-9 [2]; 6.1 µM on Galectin-3 [18]. The Activity in the data set with Mus musculus [9] amounted to 66%; in the data set on Mus musculus [15], 49%; in the data set on Mus musculus [20], 58%. Further, the outcome in the data set with Mus musculus [10], in the data set on Mus musculus [13], with Mus musculus [14], in the data set with Mus musculus [16] and with Mus musculus [17] was inactive. Besides, the result in the data set with Mus musculus [12] and in the data set on Mus musculus [19] was Active. For the same molecule, the solubility entry in data set [3] is on record as “Soluble”.
With `COc1ccc2cc(CO[C@H]3[C@@H](O)[C@@H](CO)O[C@@H](S[C@@H]4O[C@H](CO)[C@H](O)[C@H](OCc5cc6ccc(OC)cc6oc5=O)[C@H]4O)[C@@H]3O)c(=O)oc2c1`, the Kd at Galectin-9 [21] was 45 µM; on Galectin-4 [4] it was 140 µM; on Galectin-3 [1], 0.19 µM; at Galectin-4 [8], above 500 µM; at Galectin-8 it was 84 µM; at Galectin-7, 34 µM. In addition, at Galectin-9 [2], the Kd was found to be 8.3 µM. Besides, the solubility entry in [3] is listed as “Soluble”.
